Patent US6774220B1, “Compounds having lectinic properties and their biological applications” (Association pour le Développement de la Biothérapie …, priority 1995, dated 2004)
Like-named read-outs stand apart in the source and are kept apart here. Marks after values point to notes of the source that are not given here.

B1: recombinant SCL: SCL expressed in mouse L cells transfected with plasmid containing the cloned gene, hexamethasone-inducible promoter (protein)
chain: SIHFSSPVFTSRSAAFSGRGAQVRLSSARPGGLGSSSLYGLGASRPRVAVRSAYGGPVGAGIREVTINQSLLAPLRLGADPFSQRVRQEESEQIKTLNNKFASFIDKVRFLEQQNKLLETKWTLLQEQKSAKSSRLPDIFEAQIAGLRGQLEAMQVDGGRLEQGLRTMQDVVEDFKNKYEDEINRRTAAENEFVVLKKDVDAAYMSKVELEAKVDALNDEINFLRTLNETELTELQSQISDTSVVLSMDNSRSLDLDGIIAEVKAQYEEMAKCSRAEAEAWYQTKFETLQAQAGKHGDDLRNTRNEISEMNRAIQRLQAEIDNIKNQRAKLEAAIAEAEERGELALKDARAKQEELEAALQRAKQDMARQLREYQELMSVKLALDIEIATYRKLLEGEESRLAGDGVGAANISVMNSTGGSSSGGGIGLTLGGTMGSNALSFSSSAGPGLLKAYSIRTASASRRSTRD
B2: SCL: SCL excreted in the H-1 medium by PBMC over 24 hours maintained without serum (protein)
chain: B1 chain

Key:
murine sarcolectin = assay: Action of simple sugars on the agglutination of cells by sarcolectin; format: cell-based, Swiss mice; conditions: in the presence of 2 agglutinating units of murine sarcolectin; H9 cells
Protocol: A wide variety of cells originating either from rodents or from primates was tested. Agglutination is obtained by suspending the cells in an MEM medium in the absence of serum. The test may be carried out in two ways, either in the presence of a sarcolectin dilution range in a base 2 geometric progression, by identifying the concentration at which 50% of the cells are agglutinated, or by identifying the affinity of the various sugars for the cell receptors.
In the example shown, murine sarcolectin originating from the ascitic fluid of Swiss mice grafted with Crocker TG180 sarcoma contains 32 units agglutinating the H9 cells which originate from a T lymphoma, fixed by 10% formaldehyde.
The table below illustrates the affinity of the receptors for the various sugars in the presence of 2 agglutinating units.

TG-180 tumour cells = assay: Antitumour action on grafted TG-180 ascitic tumour; conditions: for anti-tumour effect (in words): TG-180 graft in mice
Protocol: In order to test the antitumour capacity of SCL inhibiting sugars, TG-180 tumour cells originating from a tumour resistant to chemical metabolic inhibitors was grafted. In a concentration of 3×10^6 cells injected i.p. into 20 gr Swiss mice, an ascitic tumour is obtained which is detectable in 10 days and kills practically 100% of the animals in 21-25 days.
In parallel series, the various groups of animals were treated 3 days after inoculation, either with a specific sugar (glucosamine, lactose, galacturonate, N.A.N.A., neuramine-lactose) in a 5 to 10% solution, the sugar concentration being 100 mM, or with the same treatment in association with an injection of immuno-stimulant (extract of corynebacterium parvum, Merieux, France), in a dose of 200 g/mouse, or interferon, or both.
4 groups of mice per experiment were used.
They are assessed by the percentage of tumours that appeared on the 10th day, the mean survival time of the animals (MST) in. days, and the final survival (as a percentage).

[1] = system: encephalomyocarditis virus (EMC); assay: Protection of IFN against the encephalomyocarditis virus in Swiss mice, with SCL inhibiting sugars; format: in vivo; conditions: EMC virus i.p.
Protocol: The model used is the encephalomyocarditis virus (EMC) which kills mice in practically all cases after rather varying but relatively short incubation periods.
Male mice (average weight: […], aged 8 to 10 weeks) were injected i.p. with sodium galacturonate, glucosamine and N-acetylneuraminic acid (5 to 10% solutions containing 100 mM sugar). 24 hours afterwards, one hundred lethal doses (50%) of EMC virus are injected by the same route. After one hour, murine interferon is injected (in a dose of 20,000 units in 0.5 ml). Table 3 gives the number of animals surviving out of the total tested, the percentage and statistical significance.

T (lympho) cells = assay: Stimulation over 24 hours of the synthesis of DNA in T (lympho) cells; format: cell-based
Protocol: XI Stimulation over 24 hours of the synthesis of DNA in T (lympho) cells

[2] = system: action of interferon (antiviral state against vesicular stomatitis virus) in mouse L cells; format: cell-based
[3] = single agent (+MEM, or IFN in reference group)
[4] = IL2 (100 u) +SCL + inhibitor (NANA 0.75 mmol.; oligo 41-55 3 μγ/ml)

| Molecule | Final survival (%) (TG-180 tumour cells; +CP) | Final survival, Number (TG-180 tumour cells; +CP) | MST (mean survival time) (TG-180 tumour cells; +CP) | Tumours on 10th day (%) (TG-180 tumour cells; +CP) | Tumours on 10th day, number (TG-180 tumour cells; +CP) | Final survival (%) (TG-180 tumour cells; +CP +IFN) | Final survival, Number (TG-180 tumour cells; +CP +IFN) | MST (mean survival time) (TG-180 tumour cells; +CP +IFN) | Tumours on 10th day (%) (TG-180 tumour cells; +CP +IFN) | Tumours on 10th day, number (TG-180 tumour cells; +CP +IFN) | Final survival (%) (TG-180 tumour cells; +IFN) | Final survival, Number (TG-180 tumour cells; +IFN) | MST (mean survival time) (TG-180 tumour cells; +IFN) | Tumours on 10th day (%) (TG-180 tumour cells; +IFN) | Tumours on 10th day, number (TG-180 tumour cells; +IFN) | Final survival (%) (TG-180 tumour cells; agent alone) | Final survival, Number (TG-180 tumour cells; agent alone) | MST (mean survival time) (TG-180 tumour cells; agent alone) | Tumours on 10th day (%) (TG-180 tumour cells; agent alone) | Tumours on 10th day, number (TG-180 tumour cells; agent alone) | further results |
| --- | --- | --- | --- | --- | --- | --- | --- | --- | --- | --- | --- | --- | --- | --- | --- | --- | --- | --- | --- | --- | --- |
| OC[C@H]1OC(O)[C@H](O)[C@@H](O)[C@H]1O (some centres unmarked) [D galactose] | – | – | – | – | – | – | – | – | – | – | – | – | – | – | – | – | – | – | – | – | affinity (murine sarcolectin): 0.28 mM |
| NCCCC(=O)O [GABA, gamma aminobutyric acid] | (53) % | 24 | 68 ± 11 days | 55% | 25 | (56) % | 17 | 70 ± 13 days | 23% | 7 | (24) % | 11 | 43 ± 10 days | 42% | 19 | (13) % | 4 | 35 ± 9 days | 46% | 14 | anti-tumour effect (in words) (TG-180 tumour cells): inhibit oncogenesis significantly |
| N[C@H]1C(O)O[C@H](CO)[C@@H](O)[C@@H]1O (some centres unmarked) [Glucosamine, glucosamine] | (53) % | 40 | 67 ± 8 days | 34% | 26 | (58) % | 35 | 70 ± 9 days | 28% | 17 | (17) % | 8 | 39 ± 9 days | 13% | 6 | (6) % | 1 | 28 ± 6 days | 20% | 3 | Final survival (%) (TG-180 tumour cells; +CP, listed as glucosamine): 53%; number of animals surviving out of the total number tested [1, 3]: 1/30; percentage surviving [1, 3]: 3%; number of animals surviving out of the total number tested ([1]; sugar +IFN (20,000 units)): 14/45b; percentage surviving ([1]; sugar +IFN (20,000 units)): 31% |
| OC[C@H]1O[C@@H](O[C@H]2[C@H](O)[C@@H](O)C(O)O[C@@H]2CO)[C@H](O)[C@@H](O)[C@H]1O (some centres unmarked) [Lactose, lactose] | (46) % | 14 | 82 ± 13 days | 10% | 3 | (64) % | 29 | 75 ± 10 days | 13% | 6 | (13) % | 6 | 64 ± 9 days | 20% | 9 | (3) % | 1 | 26 ± 6 days | 36% | 11 | Final survival (%) (TG-180 tumour cells; +CP, listed as lactose): 43% |
| CC(=O)N[C@H]1C(O)O[C@H](CO)[C@@H](O)[C@@H]1O (some centres unmarked) [N-acetylglucosamine] | – | – | – | – | – | – | – | – | – | – | – | – | – | – | – | – | – | – | – | – | anti-tumour effect (in words) (TG-180 tumour cells): comparable anti-tumour effects |
| O=C[C@H](O)[C@@H](O)[C@@H](O)[C@H](O)C(=O)[O-].[Na+] [Na galacturonate, sodium galacturonate] | (20) % | 3 | 42 ± 16 days | 13% | 2 | (73) % | 11 | 81 ± 17 days | 6% | 1 | (13) % | 2 | 34 ± 15 days | 40% | 6 | (6) % | 1 | 31 ± 10 days | 20% | 3 | number of animals surviving out of the total number tested [1, 3]: 6/75; percentage surviving [1, 3]: 8%; number of animals surviving out of the total number tested ([1]; sugar +IFN (20,000 units)): 22/90a; percentage surviving ([1]; sugar +IFN (20,000 units)): 24% |
| O=C([O-])C1OC(O)C(O)C(O)C1O.[Na+] (centres unmarked) [Na glucuronate, reference compound] | – | – | – | – | – | – | – | – | – | – | – | – | – | – | – | – | – | – | – | – | anti-tumour effect (in words) (TG-180 tumour cells): comparable anti-tumour effects; number of animals surviving out of the total number tested [1, 3]: 6/45; percentage surviving [1, 3]: 13%; number of animals surviving out of the total number tested ([1]; sugar +IFN (20,000 units)): 5/45; percentage surviving ([1]; sugar +IFN (20,000 units)): 11% |
| CCC(N)C(=O)O (stereo not drawn) [alphaaminobut., alpha aminobutyric acid] | (23) % | 7 | 55 ± 14 days | 60% | 18 | (47) % | 14 | 62 ± 14 days | 23% | 7 | (0) % | 0 | 25 ± 2 days | 30% | 9 | (0) % | 0 | 26 ± 1 days | 63% | 19 | – |
| CC(C)(N)C(=O)O [alphaaminoiso., alpha aminoisobutyric acid] | (43) % | 13 | 66 ± 13 days | 46% | 14 | (47) % | 14 | 64 ± 13 days | 4d % | 12 | (13) % | 4 | 31 ± 10 days | 50% | 15 | (7) % | 2 | 31 ± 7 days | 20% | 6 | anti-tumour effect (in words) (TG-180 tumour cells): inhibit oncogenesis significantly |
| OC[C@H]1O[C@@H](O[C@H]2[C@H](O)[C@@H](O)[C@@H](O)O[C@@H]2CO)[C@H](O)[C@@H](O)[C@H]1O [α lactose] | – | – | – | – | – | – | – | – | – | – | – | – | – | – | – | – | – | – | – | – | affinity (murine sarcolectin): 0.125 mM |
| OC[C@H]1O[C@@H](O[C@H]2[C@H](O)[C@@H](O)[C@H](O)O[C@@H]2CO)[C@H](O)[C@@H](O)[C@H]1O [β lactose] | – | – | – | – | – | – | – | – | – | – | – | – | – | – | – | – | – | – | – | – | affinity (murine sarcolectin): 0.25 mM |
| oligo 41-55: peptide SEQ ID NO: 5, position 41 to 55 in SEQ ID NO: 1 (GLGASRPRVAVRSAY; listed as Homo sapiens) | – | – | – | – | – | – | – | – | – | – | – | – | – | – | – | – | – | – | – | – | effect on the stimulation of DNA synthesis by SCL (in words) (T (lympho) cells; 24 hours): inhibited; synthesis of DNA, EXP. N° 1 (T (lympho) cells; [4]): 4,674 ± 832.52; synthesis of DNA, EXP. N° 2 (T (lympho) cells; [4]): 23,184 ± 2494 |
| B1 | – | – | – | – | – | – | – | – | – | – | – | – | – | – | – | – | – | – | – | – | limit dilution of SCL at which the action of the interferon was completely blocked ([2]; 200 IU of interferon for 5 hours, then SCL in base 2 dilutions): 1/32; IFN titer ([2]; A: IFN + SCL induced by hexamethasone): <2 U; IFN titer ([2]; A: IFN + SCL non-induced): >5120 U; SCL titer (concentration of SCL which inhibits by 100% the antiviral state) ([2]; B: IFN 200 U + SCL): 32 U. 50%*; effect on antiviral state (in words) ([2]; interferon 5 hours, then SCL 18 hours): blocks the state of the antiviral effect |
| B2 | – | – | – | – | – | – | – | – | – | – | – | – | – | – | – | – | – | – | – | – | effect on synthesis of DNA (in words) (T (lympho) cells; 24 hours): stimulates the synthesis of DNA; synthesis of DNA, EXP. N° 1 (T (lympho) cells; IL2 (100 u) +SCL, 24 hours): 6,167 ± 483.66; synthesis of DNA, EXP. N° 2 (T (lympho) cells; IL2 (100 u) +SCL, 24 hours): 35,438 ± 10.370 |
